# Assay results: PMC13266999, “Designing Antibiotics with Inherent Resistance to Efflux as a Strategy to Revive Discovery against Multidrug-Resistant Pathogens” (Journal of Medicinal Chemistry, 2026)
# Like-named read-outs stand apart in the source and are kept apart here.
# Legend:
# S. aureus = assay: MIC (microbroth dilution); format: cell-based, Staphylococcus aureus; details: for MIC: Staphylococcus aureus
# How it was run: (§1)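 Overnight stationary-phase cultures back-diluted and tested by broth microdilution with 2-fold compound series. MIC is lowest concentration with no visible growth, with OD600 also read. Separate runs included polymyxin B nonapeptide at 30 μg/mL final as outer-membrane permeabilizer.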
# Pharmacokinetics = details: male, ICR (CD-1), mouse, plasma
# Method: Pharmacokinetic studies were performed in male ICR (CD-1) mice obtained from Charles River, UK. […] Blood samples were collected from the caudal vein into anticoagulant-treated capillaries at predetermined time points up to 8 h, with terminal cardiac puncture at 8 h. Plasma samples were stored at −80 °C until analysis. […] A compound-specific LC-MS/MS method was developed for each test article using matrix-matched calibrators following protein precipitation of samples.
# K. pneumoniae = assay: MIC (microbroth dilution); format: cell-based, Klebsiella pneumoniae; details: Klebsiella pneumoniae, read-out: MIC
# How it was run: as §1
smiles,measurement,setting,value
"Cc1cc(C)nc(N[C@@H]2CCN(c3c(F)cc4c(=O)c(C(=O)O)cn5c4c3OC[C@@H]5C)C2)n1 [Compound 50, (S)-10-((R)-3-((4,6-Dimethylpyrimidin-2-yl)amino)pyrrolidin-1-yl)-9-fluoro-3-methyl-7-oxo-2,3-dihydro-7H-[1,4]oxazino[2,3,4-ij]quinoline-6-carboxylic acid]",MIC,"S. aureus; MRSA / NRS 269, TGC-NS MRSA (NRS269), read-out: MIC",2 µg/mL
same,MIC,"S. aureus; MRSA / NRS 271, Linezolid-R MRSA (NRS271), read-out: MIC",0.5 µg/mL
same,MIC,"S. aureus; MRSA / NRS 382 / USA100, USA100 MRSA (NRS382), read-out: MIC",0.5 µg/mL
same,MIC,"S. aureus; MRSA / NRS 383 / USA200, USA200 MRSA (NRS383), read-out: MIC",1 µg/mL
same,MIC,"S. aureus; MRSA / NRS 384 / USA300, USA300 MRSA (NRS384), read-out: MIC",0.03 µg/mL
same,MIC,"S. aureus; MRSA / NRS 385 / USA500, USA500 MRSA (NRS385), read-out: MIC",0.5 µg/mL
same,MIC,"S. aureus; MRSA / NRS 386 / USA700, USA700 MRSA (NRS386), read-out: MIC",0.25 µg/mL
same,MIC,"S. aureus; MRSA / NRS 387 / USA800, USA800 MRSA (NRS387), read-out: MIC",0.03 µg/mL
same,MIC,"S. aureus; MRSA / NRS 402 / VISA, VISA DAP-NS MRSA (NRS402), read-out: MIC",1 µg/mL
same,MIC,"S. aureus; MRSA / NRS 483, USA1000 MRSA (NRS483), read-out: MIC",0.03 µg/mL
same,MIC,"S. aureus; MRSA / NRS 484, USA1100 MRSA (NRS484), read-out: MIC",0.03 µg/mL
same,MIC,"S. aureus; MRSA / USA300, USA300 MRSA (FPR3757), read-out: MIC",0.5 µg/mL
same,MIC,"S. aureus; MRSA / USA300, USA300 MRSA (TCH1516), read-out: MIC",0.03 µg/mL
same,MIC,"S. aureus; MRSA / USA400, USA400 MRSA (MW2), read-out: MIC",0.03 µg/mL
same,MIC,"S. aureus; MRSA / VISA, MRSA VISA (CDC #0219), read-out: MIC",4 µg/mL
same,MIC,"S. aureus; MRSA / VISA, MRSA VISA (CDC #0220), read-out: MIC",1 µg/mL
same,MIC,"S. aureus; MRSA / VISA, MRSA VISA (CDC #0221), read-out: MIC",0.5 µg/mL
same,MIC,"S. aureus; MRSA / VISA, MRSA VISA (CDC #0223), read-out: MIC",1 µg/mL
same,MIC,"S. aureus; MRSA / VISA, MRSA VISA (CDC #0225), read-out: MIC",1 µg/mL
same,MIC,"S. aureus; MRSA / VISA, MRSA VISA (CDC #0226), read-out: MIC",0.03 µg/mL
same,MIC,"S. aureus; MRSA / VISA, MRSA VISA (CDC #0227), read-out: MIC",1 µg/mL
same,MIC,"S. aureus; MRSA / VISA, MRSA VISA (CDC AR-BANK #0215), read-out: MIC",16 µg/mL
same,MIC,"S. aureus; MRSA / VISA, MRSA VISA (CDC AR-BANK #0216), read-out: MIC",0.5 µg/mL
same,MIC,"S. aureus; MRSA / VISA, MRSA VISA (CDC AR-BANK #0217), read-out: MIC",1 µg/mL
same,MIC,"S. aureus; MRSA / VISA, MRSA VISA (Mu50), read-out: MIC",2 µg/mL
same,MIC,"S. aureus; MRSA / VISA, MRSA VISA Mupirocin-R (CDC #0218), read-out: MIC",1 µg/mL
same,MIC,"S. aureus; MRSA, MRSA DAP-NS (ECL 2963621), read-out: MIC",0.25 µg/mL
same,MIC,"S. aureus; MRSA, VanA MRSA (VRS1), read-out: MIC",1 µg/mL
same,MIC,"S. aureus; MRSA, VanA MRSA (VRS2), read-out: MIC",0.5 µg/mL
same,MIC,"S. aureus; MRSA, VanA MRSA (VRS3a), read-out: MIC",0.5 µg/mL
same,MIC,"S. aureus; MSSA / VISA, MSSA VISA (CDC #0222), read-out: MIC",0.03 µg/mL
same,MIC,"S. aureus; NCTC13277, NCTC 13277, + 4% albumin, read-out: MIC",4 µg/mL
same,MIC,"S. aureus; NCTC13616, NCTC 13616, + 4% albumin, read-out: MIC",2 µg/mL
same,MIC,"S. aureus; NRS 3 / VISA, VISA (NRS3), read-out: MIC",0.5 µg/mL
same,MIC,"S. aureus; NRS 12 / VISA, VISA (NRS12), read-out: MIC",0.06 µg/mL
same,MIC,"S. aureus; NRS 56 / VISA, VISA (NRS56), read-out: MIC",1 µg/mL
same,MIC,"S. aureus; NRS72, Sanger-476, NRS72, read-out: MIC",0.03 µg/mL
same,MIC,"S. aureus; NRS157, NRS157, read-out: MIC",0.03 µg/mL
same,MIC,"S. aureus; SA-1199, read-out: MIC",0.016 µg/mL
same,MIC,S. aureus; SA-1199B (NorA-overexpressing),0.016 µg/mL
same,MIC,"S. aureus; VRSA, VRSA (ECL 2963646), read-out: MIC",0.5 µg/mL
same,MIC,"S. aureus; VanA (VRS11b), read-out: MIC",2 µg/mL
same,MIC,"S. aureus; majority of MSSA and MRSA isolates, read-out: MIC",≤ 0.0312 µg/mL
same,fold increase in MIC in the presence of 4% albumin,S. aureus; across the strain panel,2- to 8 fold
same,AUC(0-inf),"Pharmacokinetics; iv, 5 mg/kg",33100 ng·h/mL
same,clearance,"Pharmacokinetics; iv, 5 mg/kg",2.52 mL/min/kg
same,Cmax,"Pharmacokinetics; po, 20 mg/kg",14500 ng/mL
same,Tmax,"Pharmacokinetics; po, 20 mg/kg",30 min
same,bioavailability,"Pharmacokinetics; po, 20 mg/kg",83%
same,MIC,K. pneumoniae; M6,2 µg/mL
same,MIC,"K. pneumoniae; NCTC13368, NCTC 13368",16 µg/mL
